Molecular target: hCA IX (Homo sapiens, UniProt Q16790)
Test: stopped-flow CO2 hydrase assay, hCA IX
Assay type: biochemical
Settings: incubation time 6 h, mean of three experiments
Procedure: (§1) The target coumarins 5a–p and 7a–c were examined for their CA inhibitory actions towards the ubiquitous CA I and II (cytosolic) as well as the tumour-associated CA IX and XII isozymes by the use of a stopped-flow CO2 hydrase assay, using acetazolamide (AZA) as a reference compound.
(§2) The experimental procedures utilised for CA inhibitory assay of the target compounds were carried out as described earlier, and presented in the Supplementary Materials.

SMILES	Ki [nM]
O=C(Nc1ccc(Cl)c(C(F)(F)F)c1)Nc1ccc2oc(=O)ccc2c1 [Compound 5g, 1-(4-Chloro-3-(trifluoromethyl)phenyl)-3-(2-oxo-2H-chromen-6-yl)urea]	66.4
O=C(Nc1ccc(F)c(Cl)c1)Nc1ccc2oc(=O)ccc2c1 [Compound 5h, 1-(3-Chloro-4-fluorophenyl)-3-(2-oxo-2H-chromen-6-yl)urea]	24.1
O=C(Nc1cc(C(F)(F)F)cc(C(F)(F)F)c1)Nc1ccc2oc(=O)ccc2c1 [Compound 5i, 1-(3,5-Bis(trifluoromethyl)phenyl)-3-(2-oxo-2H-chromen-6-yl)urea]	14.7
O=C(Nc1ccc2oc(=O)ccc2c1)Nc1ccc(F)cc1F [Compound 5m, 1-(2,4-Difluorophenyl)-3-(2-oxo-2H-chromen-6-yl)urea]	25.6
Cc1cc(Cl)ccc1NC(=O)Nc1ccc2oc(=O)ccc2c1 [Compound 5n, 1-(4-Chloro-2-methylphenyl)-3-(2-oxo-2H-chromen-6-yl)urea]	28.4
Cc1cccc(Cl)c1NC(=O)Nc1ccc2oc(=O)ccc2c1 [Compound 5o, 1-(2-Chloro-6-methylphenyl)-3-(2-oxo-2H-chromen-6-yl)urea]	19.2
O=C(Nc1ccc2oc(=O)ccc2c1)Nc1c(Br)cc(F)cc1Br [Compound 5p, 1-(2,6-Dibromo-4-fluorophenyl)-3-(2-oxo-2H-chromen-6-yl)urea]	72.8

System: not given
Test: not given
Settings: not given

SMILES	melting point [°C]
O=C(Nc1ccc(Cl)c(C(F)(F)F)c1)Nc1ccc2oc(=O)ccc2c1 [Compound 5g, 1-(4-Chloro-3-(trifluoromethyl)phenyl)-3-(2-oxo-2H-chromen-6-yl)urea]	253 to 255
O=C(Nc1ccc(F)c(Cl)c1)Nc1ccc2oc(=O)ccc2c1 [Compound 5h, 1-(3-Chloro-4-fluorophenyl)-3-(2-oxo-2H-chromen-6-yl)urea]	232 to 233

Molecular target: hCA I (Homo sapiens, UniProt P00915)
Test: stopped-flow CO2 hydrase assay, hCA I
Assay type: biochemical
Settings: incubation time 6 h, mean of three experiments
Procedure: as §1, §2

Sequence of hCA I (P00915 whole entry): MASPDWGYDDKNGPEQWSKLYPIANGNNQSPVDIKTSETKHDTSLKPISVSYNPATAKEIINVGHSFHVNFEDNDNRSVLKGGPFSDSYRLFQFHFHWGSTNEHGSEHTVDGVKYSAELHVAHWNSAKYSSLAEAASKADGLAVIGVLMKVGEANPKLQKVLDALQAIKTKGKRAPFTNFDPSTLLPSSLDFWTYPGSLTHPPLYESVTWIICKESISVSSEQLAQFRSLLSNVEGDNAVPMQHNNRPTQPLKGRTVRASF

SMILES	Ki [µM]
O=C(Nc1ccc(Cl)c(C(F)(F)F)c1)Nc1ccc2oc(=O)ccc2c1 [Compound 5g, 1-(4-Chloro-3-(trifluoromethyl)phenyl)-3-(2-oxo-2H-chromen-6-yl)urea]	> 100
O=C(Nc1ccc(F)c(Cl)c1)Nc1ccc2oc(=O)ccc2c1 [Compound 5h, 1-(3-Chloro-4-fluorophenyl)-3-(2-oxo-2H-chromen-6-yl)urea]	> 100
O=C(Nc1cc(C(F)(F)F)cc(C(F)(F)F)c1)Nc1ccc2oc(=O)ccc2c1 [Compound 5i, 1-(3,5-Bis(trifluoromethyl)phenyl)-3-(2-oxo-2H-chromen-6-yl)urea]	> 100
O=C(Nc1ccc2oc(=O)ccc2c1)Nc1ccc(F)cc1F [Compound 5m, 1-(2,4-Difluorophenyl)-3-(2-oxo-2H-chromen-6-yl)urea]	> 100
Cc1cc(Cl)ccc1NC(=O)Nc1ccc2oc(=O)ccc2c1 [Compound 5n, 1-(4-Chloro-2-methylphenyl)-3-(2-oxo-2H-chromen-6-yl)urea]	> 100
Cc1cccc(Cl)c1NC(=O)Nc1ccc2oc(=O)ccc2c1 [Compound 5o, 1-(2-Chloro-6-methylphenyl)-3-(2-oxo-2H-chromen-6-yl)urea]	> 100
O=C(Nc1ccc2oc(=O)ccc2c1)Nc1c(Br)cc(F)cc1Br [Compound 5p, 1-(2,6-Dibromo-4-fluorophenyl)-3-(2-oxo-2H-chromen-6-yl)urea]	> 100

System: MCF-7 cells
Test: MTT antiproliferative assay, MCF-7
Assay type: cell-based, human
Settings: Homo sapiens, MCF7, MCF7, 10 µM, mean ± SEM of three experiments, read-out: % Growth inhibition MCF7 10 µM
Procedure: (§3) Encouraged by the favourable selectivity profile of ureidocoumarins 5a–p and amidocoumarins 7a–c towards hCA IX and hCA XII, they were further examined for their prospective antiproliferative activity against human colorectal (HCT-116) and breast (MCF-7) cancer cell lines, adopting the MTT assay.
(§4) The evaluation of anticancer activity of the target compounds was conducted by MTT assay adopting the literature procedure.

SMILES	inhibition at 10 µM [%]
O=C(Nc1ccc(Cl)c(C(F)(F)F)c1)Nc1ccc2oc(=O)ccc2c1 [Compound 5g, 1-(4-Chloro-3-(trifluoromethyl)phenyl)-3-(2-oxo-2H-chromen-6-yl)urea]	10 ± 2.4
O=C(Nc1ccc(F)c(Cl)c1)Nc1ccc2oc(=O)ccc2c1 [Compound 5h, 1-(3-Chloro-4-fluorophenyl)-3-(2-oxo-2H-chromen-6-yl)urea]	16.9 ± 5.3
O=C(Nc1cc(C(F)(F)F)cc(C(F)(F)F)c1)Nc1ccc2oc(=O)ccc2c1 [Compound 5i, 1-(3,5-Bis(trifluoromethyl)phenyl)-3-(2-oxo-2H-chromen-6-yl)urea]	> 50
O=C(Nc1ccc2oc(=O)ccc2c1)Nc1ccc(F)cc1F [Compound 5m, 1-(2,4-Difluorophenyl)-3-(2-oxo-2H-chromen-6-yl)urea]	15.2 ± 1.4
Cc1cc(Cl)ccc1NC(=O)Nc1ccc2oc(=O)ccc2c1 [Compound 5n, 1-(4-Chloro-2-methylphenyl)-3-(2-oxo-2H-chromen-6-yl)urea]	16.7 ± 4.9
Cc1cccc(Cl)c1NC(=O)Nc1ccc2oc(=O)ccc2c1 [Compound 5o, 1-(2-Chloro-6-methylphenyl)-3-(2-oxo-2H-chromen-6-yl)urea]	30.3 ± 1.5
O=C(Nc1ccc2oc(=O)ccc2c1)Nc1c(Br)cc(F)cc1Br [Compound 5p, 1-(2,6-Dibromo-4-fluorophenyl)-3-(2-oxo-2H-chromen-6-yl)urea]	21.4 ± 3

Same assay, conditions: Homo sapiens, MCF7, MCF7, 100 µM, mean ± SEM of three experiments, read-out: % Growth inhibition MCF7 100 µM

SMILES	inhibition at 100 µM [%]
O=C(Nc1ccc(Cl)c(C(F)(F)F)c1)Nc1ccc2oc(=O)ccc2c1 [Compound 5g, 1-(4-Chloro-3-(trifluoromethyl)phenyl)-3-(2-oxo-2H-chromen-6-yl)urea]	92.3 ± 0.6
O=C(Nc1ccc(F)c(Cl)c1)Nc1ccc2oc(=O)ccc2c1 [Compound 5h, 1-(3-Chloro-4-fluorophenyl)-3-(2-oxo-2H-chromen-6-yl)urea]	91.2 ± 1
O=C(Nc1cc(C(F)(F)F)cc(C(F)(F)F)c1)Nc1ccc2oc(=O)ccc2c1 [Compound 5i, 1-(3,5-Bis(trifluoromethyl)phenyl)-3-(2-oxo-2H-chromen-6-yl)urea]	> 90
O=C(Nc1ccc2oc(=O)ccc2c1)Nc1ccc(F)cc1F [Compound 5m, 1-(2,4-Difluorophenyl)-3-(2-oxo-2H-chromen-6-yl)urea]	22.7 ± 3.3
Cc1cc(Cl)ccc1NC(=O)Nc1ccc2oc(=O)ccc2c1 [Compound 5n, 1-(4-Chloro-2-methylphenyl)-3-(2-oxo-2H-chromen-6-yl)urea]	19.9 ± 1.2
Cc1cccc(Cl)c1NC(=O)Nc1ccc2oc(=O)ccc2c1 [Compound 5o, 1-(2-Chloro-6-methylphenyl)-3-(2-oxo-2H-chromen-6-yl)urea]	72.8 ± 5.5
O=C(Nc1ccc2oc(=O)ccc2c1)Nc1c(Br)cc(F)cc1Br [Compound 5p, 1-(2,6-Dibromo-4-fluorophenyl)-3-(2-oxo-2H-chromen-6-yl)urea]	79.5 ± 2.4

Same assay, conditions: MCF7, 10 µM, mean ± SEM of three experiments

SMILES	% Growth inhibition MCF7 10 µM [%]
O=C(Nc1cc(C(F)(F)F)cc(C(F)(F)F)c1)Nc1ccc2oc(=O)ccc2c1 [Compound 5i, 1-(3,5-Bis(trifluoromethyl)phenyl)-3-(2-oxo-2H-chromen-6-yl)urea]	51.5 ± 3.1

Same assay, conditions: MCF7, 100 µM, mean ± SEM of three experiments

SMILES	% Growth inhibition MCF7 100 µM [%]
O=C(Nc1cc(C(F)(F)F)cc(C(F)(F)F)c1)Nc1ccc2oc(=O)ccc2c1 [Compound 5i, 1-(3,5-Bis(trifluoromethyl)phenyl)-3-(2-oxo-2H-chromen-6-yl)urea]	93.9 ± 0.4

Molecular target: hCA XII (Homo sapiens, UniProt O43570)
Test: stopped-flow CO2 hydrase assay, hCA XII
Assay type: biochemical
Settings: incubation time 6 h, mean of three experiments
Procedure: as §1, §2

Sequence of hCA XII (O43570 25-354): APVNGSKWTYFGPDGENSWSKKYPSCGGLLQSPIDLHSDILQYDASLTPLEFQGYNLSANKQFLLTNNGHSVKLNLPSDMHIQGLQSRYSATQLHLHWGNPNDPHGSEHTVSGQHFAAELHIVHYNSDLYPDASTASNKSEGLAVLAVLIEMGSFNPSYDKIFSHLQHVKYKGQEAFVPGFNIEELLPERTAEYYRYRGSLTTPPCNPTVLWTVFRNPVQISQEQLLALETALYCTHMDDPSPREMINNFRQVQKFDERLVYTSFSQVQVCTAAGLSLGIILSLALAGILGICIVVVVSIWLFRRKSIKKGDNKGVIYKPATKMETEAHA

SMILES	Ki [nM]
O=C(Nc1ccc(Cl)c(C(F)(F)F)c1)Nc1ccc2oc(=O)ccc2c1 [Compound 5g, 1-(4-Chloro-3-(trifluoromethyl)phenyl)-3-(2-oxo-2H-chromen-6-yl)urea]	29.4
O=C(Nc1ccc(F)c(Cl)c1)Nc1ccc2oc(=O)ccc2c1 [Compound 5h, 1-(3-Chloro-4-fluorophenyl)-3-(2-oxo-2H-chromen-6-yl)urea]	10.3
O=C(Nc1cc(C(F)(F)F)cc(C(F)(F)F)c1)Nc1ccc2oc(=O)ccc2c1 [Compound 5i, 1-(3,5-Bis(trifluoromethyl)phenyl)-3-(2-oxo-2H-chromen-6-yl)urea]	5.9
O=C(Nc1ccc2oc(=O)ccc2c1)Nc1ccc(F)cc1F [Compound 5m, 1-(2,4-Difluorophenyl)-3-(2-oxo-2H-chromen-6-yl)urea]	7.2
Cc1cc(Cl)ccc1NC(=O)Nc1ccc2oc(=O)ccc2c1 [Compound 5n, 1-(4-Chloro-2-methylphenyl)-3-(2-oxo-2H-chromen-6-yl)urea]	43.1
Cc1cccc(Cl)c1NC(=O)Nc1ccc2oc(=O)ccc2c1 [Compound 5o, 1-(2-Chloro-6-methylphenyl)-3-(2-oxo-2H-chromen-6-yl)urea]	13.8
O=C(Nc1ccc2oc(=O)ccc2c1)Nc1c(Br)cc(F)cc1Br [Compound 5p, 1-(2,6-Dibromo-4-fluorophenyl)-3-(2-oxo-2H-chromen-6-yl)urea]	50.4

System: HCT-116 cells
Test: MTT antiproliferative assay, HCT-116
Assay type: cell-based, human
Settings: HCT116, 10 µM, mean ± SEM of three experiments
Procedure: as §3, §4

SMILES	% Growth inhibition HCT116 10 µM [%]
O=C(Nc1cc(C(F)(F)F)cc(C(F)(F)F)c1)Nc1ccc2oc(=O)ccc2c1 [Compound 5i, 1-(3,5-Bis(trifluoromethyl)phenyl)-3-(2-oxo-2H-chromen-6-yl)urea]	70.4 ± 2.6

Same assay, conditions: HCT116, 100 µM, mean ± SEM of three experiments

SMILES	% Growth inhibition HCT116 100 µM [%]
O=C(Nc1cc(C(F)(F)F)cc(C(F)(F)F)c1)Nc1ccc2oc(=O)ccc2c1 [Compound 5i, 1-(3,5-Bis(trifluoromethyl)phenyl)-3-(2-oxo-2H-chromen-6-yl)urea]	94.2 ± 1.1

Same assay, conditions: Homo sapiens, HCT-116, HCT116, 10 µM, mean ± SEM of three experiments, read-out: % Growth inhibition HCT116 10 µM

SMILES	inhibition at 10 µM [%]
O=C(Nc1ccc(Cl)c(C(F)(F)F)c1)Nc1ccc2oc(=O)ccc2c1 [Compound 5g, 1-(4-Chloro-3-(trifluoromethyl)phenyl)-3-(2-oxo-2H-chromen-6-yl)urea]	15.2 ± 4.4
O=C(Nc1ccc(F)c(Cl)c1)Nc1ccc2oc(=O)ccc2c1 [Compound 5h, 1-(3-Chloro-4-fluorophenyl)-3-(2-oxo-2H-chromen-6-yl)urea]	11.9 ± 1.5
O=C(Nc1ccc2oc(=O)ccc2c1)Nc1ccc(F)cc1F [Compound 5m, 1-(2,4-Difluorophenyl)-3-(2-oxo-2H-chromen-6-yl)urea]	25.7 ± 2.3
Cc1cc(Cl)ccc1NC(=O)Nc1ccc2oc(=O)ccc2c1 [Compound 5n, 1-(4-Chloro-2-methylphenyl)-3-(2-oxo-2H-chromen-6-yl)urea]	4.9 ± 2.5
Cc1cccc(Cl)c1NC(=O)Nc1ccc2oc(=O)ccc2c1 [Compound 5o, 1-(2-Chloro-6-methylphenyl)-3-(2-oxo-2H-chromen-6-yl)urea]	9.7 ± 4
O=C(Nc1ccc2oc(=O)ccc2c1)Nc1c(Br)cc(F)cc1Br [Compound 5p, 1-(2,6-Dibromo-4-fluorophenyl)-3-(2-oxo-2H-chromen-6-yl)urea]	14.1 ± 3

Same assay, conditions: Homo sapiens, HCT-116, HCT116, 100 µM, mean ± SEM of three experiments, read-out: % Growth inhibition HCT116 100 µM

SMILES	inhibition at 100 µM [%]
O=C(Nc1ccc(Cl)c(C(F)(F)F)c1)Nc1ccc2oc(=O)ccc2c1 [Compound 5g, 1-(4-Chloro-3-(trifluoromethyl)phenyl)-3-(2-oxo-2H-chromen-6-yl)urea]	90.5 ± 1.4
O=C(Nc1ccc(F)c(Cl)c1)Nc1ccc2oc(=O)ccc2c1 [Compound 5h, 1-(3-Chloro-4-fluorophenyl)-3-(2-oxo-2H-chromen-6-yl)urea]	92.3 ± 1.2
O=C(Nc1cc(C(F)(F)F)cc(C(F)(F)F)c1)Nc1ccc2oc(=O)ccc2c1 [Compound 5i, 1-(3,5-Bis(trifluoromethyl)phenyl)-3-(2-oxo-2H-chromen-6-yl)urea]	> 90
O=C(Nc1ccc2oc(=O)ccc2c1)Nc1ccc(F)cc1F [Compound 5m, 1-(2,4-Difluorophenyl)-3-(2-oxo-2H-chromen-6-yl)urea]	26.1 ± 4
Cc1cc(Cl)ccc1NC(=O)Nc1ccc2oc(=O)ccc2c1 [Compound 5n, 1-(4-Chloro-2-methylphenyl)-3-(2-oxo-2H-chromen-6-yl)urea]	20.5 ± 3.5
Cc1cccc(Cl)c1NC(=O)Nc1ccc2oc(=O)ccc2c1 [Compound 5o, 1-(2-Chloro-6-methylphenyl)-3-(2-oxo-2H-chromen-6-yl)urea]	78.6 ± 3.7
O=C(Nc1ccc2oc(=O)ccc2c1)Nc1c(Br)cc(F)cc1Br [Compound 5p, 1-(2,6-Dibromo-4-fluorophenyl)-3-(2-oxo-2H-chromen-6-yl)urea]	75.2 ± 5.8

Molecular target: hCA II (Homo sapiens, UniProt P00918)
Test: stopped-flow CO2 hydrase assay, hCA II
Assay type: biochemical
Settings: incubation time 6 h, mean of three experiments
Procedure: as §1, §2

SMILES	Ki [µM]
O=C(Nc1ccc(Cl)c(C(F)(F)F)c1)Nc1ccc2oc(=O)ccc2c1 [Compound 5g, 1-(4-Chloro-3-(trifluoromethyl)phenyl)-3-(2-oxo-2H-chromen-6-yl)urea]	> 100
O=C(Nc1ccc(F)c(Cl)c1)Nc1ccc2oc(=O)ccc2c1 [Compound 5h, 1-(3-Chloro-4-fluorophenyl)-3-(2-oxo-2H-chromen-6-yl)urea]	> 100
O=C(Nc1cc(C(F)(F)F)cc(C(F)(F)F)c1)Nc1ccc2oc(=O)ccc2c1 [Compound 5i, 1-(3,5-Bis(trifluoromethyl)phenyl)-3-(2-oxo-2H-chromen-6-yl)urea]	> 100
O=C(Nc1ccc2oc(=O)ccc2c1)Nc1ccc(F)cc1F [Compound 5m, 1-(2,4-Difluorophenyl)-3-(2-oxo-2H-chromen-6-yl)urea]	> 100
Cc1cc(Cl)ccc1NC(=O)Nc1ccc2oc(=O)ccc2c1 [Compound 5n, 1-(4-Chloro-2-methylphenyl)-3-(2-oxo-2H-chromen-6-yl)urea]	> 100
Cc1cccc(Cl)c1NC(=O)Nc1ccc2oc(=O)ccc2c1 [Compound 5o, 1-(2-Chloro-6-methylphenyl)-3-(2-oxo-2H-chromen-6-yl)urea]	> 100
O=C(Nc1ccc2oc(=O)ccc2c1)Nc1c(Br)cc(F)cc1Br [Compound 5p, 1-(2,6-Dibromo-4-fluorophenyl)-3-(2-oxo-2H-chromen-6-yl)urea]	> 100
